Where a name gives a salt, the structure may show the parent alone.
What was measured:
CYP1A-like EROD activity = assay: in vitro; conditions: both, Christophersen, Bornhoeved, rainbow trout (Oncorhynchus mykiss)
Experimental: (§1) Commercially available rainbow trout (O. mykiss) liver S9 fractions were used as the enzyme source for the in vitro P450 inhibition assays (RTL-S9, total protein concentration 20 mg/mL, Primacyt Cell Culture Technology GmbH).
(§2) The inhibitory impacts of the test substances toward the rainbow trout liver P450 system in vitro were assessed based on EROD and BFCOD as the marker reactions for CYP1A- and CYP3A-like isoenzyme activities, respectively. […] In this study, the EROD (CYP1A) and BFCOD (CYP3A) activities were determined using 0.5 mg/mL RT-S9 (total protein) concentration and 1 or 2 mM NADPH, respectively. […] All incubations were performed in duplicate in a total volume of 100 µL of potassium phosphate buffer (0.1 M, pH 7.8), at 11°C ± 1°C on a thermostated orbital shaker (LLG Labware). The reactions were terminated by the addition of 37.5 μL of the quenching solution (0.5 M Trizma base/acetonitrile 20:80, v/v). […] The quantitation of the metabolites (resorufin or HFC) was based on linear regression of the respective standards prepared in the potassium phosphate buffer. Negative control incubations were performed separately without the marker substrate, without cofactors, and without RT-S9 to ensure that the detected fluorescence signals arise from the metabolic conversion of the marker substrates (ER or BFC) into their respective metabolites (resorufin or HFC, respectively).
(§3) In this study, the preincubation was performed using three different protocols A-C (Table 2). In the first protocol, the test substance (each separately at six different concentrations between 0.01 and 500 µM) and RT-S9 were preincubated without any cofactors, and the marker reaction was initiated by the addition of the marker substrate (ER or BFC) and NADPH (Protocol A). This enabled the determination of the inhibitory impact of the parent form of the test substance on the respective marker activity. In the second protocol, the test substance and RT-S9 were preincubated together with NADPH, and the marker reaction was initiated by the addition of the marker substrate (Protocol B). In this manner, the test substance could undergo P450 metabolism already during the preincubation step, which may reduce its concentration and thus the inhibitory impact toward the marker reactions, or result in the formation of reactive or inhibitory metabolites, which typically increases the inhibitory impact compared with the parent form (Protocol A). […] In this manner, the test substance could undergo both P450 and phase II metabolism already during the preincubation step, which may likewise reduce its concentration and inhibitory impact toward the marker reactions, and even help eliminate the possible reactive metabolites via glutathione conjugation. […] Additionally, positive control incubations of the marker substrates (ER or BFC) without the test substance (zero inhibitor concentration) were included in each series to determine the basal EROD or BFCOD activity in RT-S9.
(§4) The residual solvent concentration was kept constant at all inhibitor concentrations, including zero, to eliminate its impact on the IC50 concentrations derived from the empirical data. The IC50 shifts for Protocols B and C were calculated according to Eq. 2: IC50 shift=IC50,Protocol A/IC50,Protocol B or Protocol C (2)
(§5) In this manner, the impact of the test substance’s own metabolism (during the preincubation step) on the inhibitory impact could be evaluated.

[1] = system: CYP1A-like ethoxyresorufin O-deethylase (EROD) activity in rainbow trout liver S9 fractions; assay: in vitro
Experimental: as §1, §2, §3, §4, §5

[2] = system: CYP1A-like ethoxyresorufin O-deethylase (EROD) activity; assay: in vitro; conditions: both, Christophersen, Bornhoeved, rainbow trout (Oncorhynchus mykiss); for inhibition at 10 min: pH 7.8
Experimental: as §1, §2, §3, §4, §5

[3] = target: T1, CYP3A-like 7-benzyloxy-4-trifluoromethylcoumarin O-debenzylase (BFCOD) activity in rainbow trout liver S9 fractions (Oncorhynchus mykiss, UniProt O42563); assay: BFCOD inhibition in RT-S9 (IC50 shift assay); conditions: within the tested concentration range
T1 sequence (O42563 1-518): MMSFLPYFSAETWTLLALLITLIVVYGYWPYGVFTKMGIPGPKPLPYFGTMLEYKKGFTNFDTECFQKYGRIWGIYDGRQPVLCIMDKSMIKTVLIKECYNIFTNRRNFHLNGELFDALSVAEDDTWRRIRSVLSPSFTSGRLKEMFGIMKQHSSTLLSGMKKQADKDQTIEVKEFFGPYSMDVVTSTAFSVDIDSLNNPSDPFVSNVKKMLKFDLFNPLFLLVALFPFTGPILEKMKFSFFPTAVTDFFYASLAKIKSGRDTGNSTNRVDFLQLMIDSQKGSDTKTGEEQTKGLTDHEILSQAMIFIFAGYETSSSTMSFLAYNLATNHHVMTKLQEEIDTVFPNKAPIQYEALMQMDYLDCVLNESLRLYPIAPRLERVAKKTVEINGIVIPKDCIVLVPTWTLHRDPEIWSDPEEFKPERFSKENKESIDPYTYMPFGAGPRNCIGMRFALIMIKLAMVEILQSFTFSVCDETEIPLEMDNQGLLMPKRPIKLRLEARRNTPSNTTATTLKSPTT
Experimental: as §1, §2, §3, §4, §5

[4] = target: T2, CYP3A-like BFCOD activity (Oncorhynchus mykiss, UniProt O42563); assay: BFCOD inhibition in RT-S9 (IC50 shift assay); conditions: both, Christophersen, Bornhoeved, rainbow trout (Oncorhynchus mykiss), s9, pH 7.8
T2 sequence (O42563 1-518): T1 sequence (O42563 1-518)
Experimental: as §1, §2, §3, §4, §5

[5] = Unbound fraction in RT-S9 by rapid equilibrium dialysis; type: in vitro ADME, rainbow trout (Oncorhynchus mykiss); conditions: rainbow trout liver S9 fractions (RT-S9), 10 µM test substance, 1 mg/mL RT-S9, pH 7.8, 11°C, n = 3, read-out: Unbound fraction (fU,RT-S9)
Experimental: The unbound (free) fractions of the test substances in RT-S9 (fU,RT-S9) were determined using rapid equilibrium dialysis assay (RED, Thermo Fisher Scientific), which exploits two-compartment inserts separated by a dialysis membrane with a molecular weight cut-off of 8,000 Da. In the RED assay, each test pharmaceutical (10 μM) was incubated in triplicate with RT-S9 (1 mg/mL) in 50 mM potassium phosphate buffer (pH 7.8) in a total volume of 300 µL on one side of the membrane (protein-containing chamber), and 350 μL of the plain phosphate buffer on the other side (protein-free chamber). To reach equilibrium, the samples were incubated on an orbital shaker (C25KC Incubator shaker, New Brunswick Scientific, 120 rpm) at 11°C for 4 h. Next, 50 µL aliquots were collected from both chambers separately and diluted by adding 50 µL of the plain buffer (to the protein-containing sample) or 50 μL of 1 mg/mL RT-S9 in the buffer (to the protein-free sample). Finally, the RT-S9 protein was precipitated by the addition of acetonitrile (+200 μL) to both samples separately, followed by incubation on ice for 30 min and centrifugation (16100 g, 15 min). The test substance concentrations in the supernatants of both samples were determined using liquid chromatography. The instrumentation and the analytical methods used for chromatographic analyses are described in detail in the Supplementary Table S2. The unbound fractions of the test substances in RT-S9 (fU,RT-S9) were calculated according to Eq. 3: fU,RT−S9=1− PC−PF/PC (3) where [PC] and [PF] are the test substance concentrations in the samples collected from protein-containing and protein-free chambers, respectively. To account for the test substance’s binding to the RT-S9, the nominal IC50 values were corrected for unbound fraction (fU,RT-S9) according to Eq. 4: Unbound IC50=Nominal IC50×fU,RT−S9 (4)

[6] = design: method as in Chemaxon; conditions: pH 7.8; (e) empirical; ref Chemaxon; cited from earlier work
Human CYP1A = conditions: ref Drugbank unless otherwise stated (Dragovic et al., 2013; Conard and Ober 1984; Niwa et al., 2005); cited from earlier work
[7] = design: method as in PubChem; conditions: (e) empirical; ref PubChem; cited from earlier work
[8] = pH 7.8, EROD inhibition in RT-S9, Nominal IC50

CNCC[C@@H](Oc1ccccc1C)c1ccccc1 [Atomoxetine, atomoxetine hydrochloride]
IC50 shift at 10 min (CYP1A-like EROD activity; s9, pH 7.8, EROD inhibition in RT-S9, IC50 shift (A/B)): 0.9 ± 0.1 | IC50 shift at 10 min (CYP1A-like EROD activity; s9, pH 7.8, EROD inhibition in RT-S9, IC50 shift (A/C)): 1.1 | EROD inhibition in RT-S9 (in words) [1]: inhibited selectively only EROD activity | inhibition at 10 min [2]: ≤ 50% | IC50 at 10 min [2, 8]: > 100 µM | IC50 at 10 min ([2]; pH 7.8, EROD inhibition in RT-S9, Unbound IC50): 20 ± 4 µM | BFCOD inhibition in RT-S9 (in words) [3]: did not significantly inhibit | IC50 at 20 min [4]: > 25 µM | fraction unbound at 4 h, 10 µM [5]: 0.2 ± 0.03 | Water solubility [6]: 27.8 (e) mg/mL

O=C(NCC1CCCCN1)c1cc(OCC(F)(F)F)ccc1OCC(F)(F)F (stereo not drawn) [Flecainide, flecainide acetate]
EROD inhibition in RT-S9 (in words) [1]: inhibited selectively only EROD activity | IC50 [1]: 82 ± 14 µM | inhibition at 10 min [2]: ≤ 50% | IC50 at 10 min [2, 8]: > 100 µM | BFCOD inhibition in RT-S9 (in words) [3]: did not significantly inhibit | IC50 at 20 min [4]: > 25 µM | fraction unbound at 4 h, 10 µM [5]: 0.36 ± 0.03 | Human CYP1A interactions: substrate status (Human CYP1A): Substrate

CN(C)CCc1c[nH]c2ccc(C[C@H]3COC(=O)N3)cc12 [Zolmitriptan, zolmitriptan]
BFCOD inhibition in RT-S9 (in words) [3]: did not significantly inhibit | LogKOW [7]: 1.792 (e) | Human CYP1A interactions: substrate status (Human CYP1A): Substrate

— PMC11284600, “Many human pharmaceuticals are weak inhibitors of the cytochrome P450 system in rainbow trout (Oncorhynchus mykiss) liver S9 fractions” (Frontiers in Toxicology, 2024)
